Assay results from US11304419B2, “Methods to induce heat stress tolerance in plants” (Valent BioSciences LLC, priority 2020, dated 2022).

How the values were obtained:
Assay type in all cases: in vivo
Apogee wheat = experiment: Heat stress tolerance in wheat following ACC application during flowering; conditions: heat stress 36/30° C. 7 days, n = 8
Description: 24 pots of Apogee wheat were grown in a greenhouse under 3 consecutive growing conditions. First, the wheat was planted in ProMix® growth media and grown for about 6 weeks in a growth cabinet at 24/18° C. day/night temperature under a 16/8 hour light/dark photoperiod. Plants were at Feekes stage 10.4-10.5 (flowering stage) following the first set of growth conditions. Next, spray applications of 0, 30 or 100 ppm ACC (n=8) were made using a tank sprayer. Next, 2 days following treatment, the plants were transferred to a growth chamber at 36/30° C. day/night temperature under a 16/8-hour light/dark photoperiod for 7 days. These conditions constitute significant heat stress. Finally, the plants were then returned to growth chamber at 24/18° C. day/night temperature under a 16/8-hour light/dark photoperiod for about 5 additional weeks. Plants were then destructively harvested and measured for total spike number, spike weight, grain weight, yield per spike, A spike number and harvest index. A spike number is calculated by subtracting the number of reproductive tillers at treatment from the number of reproductive tillers at harvest. An increase in reproductive tillers is indicative of an increase in reproductive success. Harvest index is calculated by dividing pounds of grain by the total pounds of above ground biomass.

Butterhead lettuce = experiment: Heat stress tolerance in lettuce following ACC application at rosette stage; conditions: heat stress 34/30° C. nine days; for Canopy Density / Fresh Weight / Δ Canopy Density: n = 5; for Canopy Density, percent increase over stress control / Fresh Weight, percent increase over stress control / Δ Canopy Density, percent increase over stress control: vs stress control; for Canopy Density, percent increase over treatment control / Fresh Weight, percent increase over treatment control / Δ Canopy Density, percent increase over treatment control: vs treatment control
Description: Butterhead lettuce was seeded into ProMix BX (Premier Horticulture) and grown in a greenhouse. Three weeks post-sowing the lettuce was transferred to a growth cabinet under the following conditions: 24/18° C. day/night temperature under a 16/8 hour light/dark photoperiod. Plants were at head formation (rosette) stage following the first set of growth conditions. 4 days after transfer canopy density was calculated. Next, spray applications of 0, 10, 30 or 100 ppm ACC (n=5) were made using a track sprayer on Sep. 21, 2020. Next, two days following treatment, half of the plants were transferred to a second growth cabinet at 34/30° C. day/night temperature under a 16/8-hour light/dark photoperiod for nine days. These conditions constitute significant heat stress. Plants were then destructively harvested and measured for fresh weight, size, canopy density and A canopy density. A canopy density is calculated by subtracting the canopy density at treatment from the canopy density at harvest.

[1] = test system: dwarf variety of Brassica napus; experiment: Heat stress tolerance in Brassica napus following ACC application; conditions: heat stress 36/30° C. seven days; for Seed Number per Pod / Seed Yield per Pod / Single Seed Weight: n = 10; for Seed Number per Pod, percent increase over treatment control / Seed Yield per Pod, percent increase over treatment control / Single Seed Weight, percent increase over treatment control: vs treatment control
Description: A dwarf variety of Brassica napus commonly used as an experimental model for the canola variety of B. napus was seeded into ProMix BX (Premier Horticulture) and grown in a greenhouse. […] Following spraying, plants were moved to a growth cabinet under the following conditions: 24/18 C day night temperatures under a 16/8 light dark period. Next, 2 days following treatment, half of the plants were transferred to a second growth cabinet at 36/30° C. day/night temperature under a 16/8-hour light/dark photoperiod for seven days. These conditions constitute early season heat stress. At all times flowers and pods were pruned to keep the number of pods to about 10. Plants were then destructively harvested and measured for seed yield, seed numbers, seed yield per pod, seed number per pod and single seed weight.

[2] = 30 ppm ACC spray at Feekes stage 10.4-10.5
[3] = 100 ppm ACC spray at Feekes stage 10.4-10.5
[4] = 10 ppm ACC spray at rosette stage
[5] = 30 ppm ACC spray at rosette stage
[6] = 100 ppm ACC spray at rosette stage

NC1(C(=O)O)CC1 [ACC, 1-amino-1-cyclopropanecarboxylic acid]
Grain Weight (Apogee wheat; [2]): 3.1 grams
Harvest Index (Apogee wheat; [2]): 0.32
Spike Weight (Apogee wheat; [2]): 5.39 grams
Total Spike Number (Apogee wheat; [2]): 6.25
Yield per Spike (Apogee wheat; [2]): 0.5 grams
Δ Spike Number (Apogee wheat; [2]): 1.75
Grain Weight (Apogee wheat; [3]): 3.37 grams
Harvest Index (Apogee wheat; [3]): 0.34
Spike Weight (Apogee wheat; [3]): 5.69 grams
Total Spike Number (Apogee wheat; [3]): 6.5
Yield per Spike (Apogee wheat; [3]): 0.53 grams
Δ Spike Number (Apogee wheat; [3]): 2.13
Canopy Density (Butterhead lettuce; [4]): 15.58
Fresh Weight (Butterhead lettuce; [4]): 93.94 grams
Δ Canopy Density (Butterhead lettuce; [4]): 5.12
Canopy Density, percent increase over stress control (Butterhead lettuce; 10 ppm ACC): (−11.5%)
Fresh Weight, percent increase over stress control (Butterhead lettuce; 10 ppm ACC): (−8.5%)
Δ Canopy Density, percent increase over stress control (Butterhead lettuce; 10 ppm ACC): (−24.9%)
Canopy Density, percent increase over treatment control (Butterhead lettuce; 10 ppm ACC): [5.9%]
Fresh Weight, percent increase over treatment control (Butterhead lettuce; 10 ppm ACC): [11.6%]
Δ Canopy Density, percent increase over treatment control (Butterhead lettuce; 10 ppm ACC): [46.3%]
Canopy Density (Butterhead lettuce; [5]): 16.65
Fresh Weight (Butterhead lettuce; [5]): 115.11 grams
Δ Canopy Density (Butterhead lettuce; [5]): 5.08
Canopy Density, percent increase over stress control (Butterhead lettuce; 30 ppm ACC): (−5.4%)
Fresh Weight, percent increase over stress control (Butterhead lettuce; 30 ppm ACC): (12.1%)
Δ Canopy Density, percent increase over stress control (Butterhead lettuce; 30 ppm ACC): (−25.5%)
Canopy Density, percent increase over treatment control (Butterhead lettuce; 30 ppm ACC): [13.2%]
Fresh Weight, percent increase over treatment control (Butterhead lettuce; 30 ppm ACC): [36.8%]
Δ Canopy Density, percent increase over treatment control (Butterhead lettuce; 30 ppm ACC): [45.1%]
Canopy Density (Butterhead lettuce; [6]): 15.80
Fresh Weight (Butterhead lettuce; [6]): 97.51 grams
Δ Canopy Density (Butterhead lettuce; [6]): 4.11
Canopy Density, percent increase over stress control (Butterhead lettuce; 100 ppm ACC): (−10.2%)
Fresh Weight, percent increase over stress control (Butterhead lettuce; 100 ppm ACC): (−5.1%)
Δ Canopy Density, percent increase over stress control (Butterhead lettuce; 100 ppm ACC): (−39.7%)
Canopy Density, percent increase over treatment control (Butterhead lettuce; 100 ppm ACC): [7.4%]
Fresh Weight, percent increase over treatment control (Butterhead lettuce; 100 ppm ACC): [15.9%]
Δ Canopy Density, percent increase over treatment control (Butterhead lettuce; 100 ppm ACC): [17.4%]
Seed Number per Pod ([1]; 10 ppm ACC spray at flowering): 14.8
Seed Yield per Pod ([1]; 10 ppm ACC spray at flowering): 0.029 grams
Single Seed Weight ([1]; 10 ppm ACC spray at flowering): 0.0019 grams
Seed Number per Pod, percent increase over treatment control ([1]; 10 ppm ACC): [6.5%]
Seed Yield per Pod, percent increase over treatment control ([1]; 10 ppm ACC): [0%]
Single Seed Weight, percent increase over treatment control ([1]; 10 ppm ACC): [−9.5%]
Seed Number per Pod ([1]; 30 ppm ACC spray at flowering): 15.1
Seed Yield per Pod ([1]; 30 ppm ACC spray at flowering): 0.033 grams
Single Seed Weight ([1]; 30 ppm ACC spray at flowering): 0.0021 grams
Seed Number per Pod, percent increase over treatment control ([1]; 30 ppm ACC): [8.6%]
Seed Yield per Pod, percent increase over treatment control ([1]; 30 ppm ACC): [13.8%]
Single Seed Weight, percent increase over treatment control ([1]; 30 ppm ACC): [0%]
Seed Number per Pod ([1]; 100 ppm ACC spray at flowering): 17.4
Seed Yield per Pod ([1]; 100 ppm ACC spray at flowering): 0.036 grams
Single Seed Weight ([1]; 100 ppm ACC spray at flowering): 0.0020 grams
Seed Number per Pod, percent increase over treatment control ([1]; 100 ppm ACC): [25.2%]
Seed Yield per Pod, percent increase over treatment control ([1]; 100 ppm ACC): [24.1%]
Single Seed Weight, percent increase over treatment control ([1]; 100 ppm ACC): [−4.8%]
Seed Number per Pod ([1]; 300 ppm ACC spray at flowering): 15.6
Seed Yield per Pod ([1]; 300 ppm ACC spray at flowering): 0.030 grams
Single Seed Weight ([1]; 300 ppm ACC spray at flowering): 0.0019 grams
Seed Number per Pod, percent increase over treatment control ([1]; 300 ppm ACC): [12.2%]
Seed Yield per Pod, percent increase over treatment control ([1]; 300 ppm ACC): [3.4%]
Single Seed Weight, percent increase over treatment control ([1]; 300 ppm ACC): [−9.5%]
